According to patent US20230138395A1, “PHARMACEUTICAL COMPOSITIONS OF A THERAPEUTIC POLYENE MACROLIDE AND METHODS OF THEIR USE” (priority 2020, published 2023):
Converted amounts (≈) assume the structure as drawn. Read-outs that look alike come from different tables or passages of the source.

Assays:
[1] = test system: individual Aspergillus spp. (Table 15, species not named); experiment: MFC determination, Table 15; assay type: cell-based; details: Aspergillus sp. of Table 15; for MFC50: kills 50% of strains; for MFC90: kills 90% of strains
C. albicans SC5314 = experiment: In vitro activity (MFC) against the infecting strain, Example 18; assay type: cell-based, Candida albicans
[2] = test system: Fusarium strains (Table 18); experiment: MFC determination, Table 18; assay type: cell-based, Fusarium spp.; details: for MFC50: kills 50% of strains; for MFC90: kills 90% of strains
C. parapsilosis = experiment: MFC determination; assay type: cell-based; details: for MFC50 / MFC90: C. parapsilosis; for MFC50: kills 50% of strains; for MFC90: kills 90% of strains
Fusarium strains = experiment: MFC determination, Table 17; assay type: cell-based, Fusarium spp.; details: Fusarium strains (Table 17); for MFC Range: in µg/mL; for MFC50: kills 50% of strains; for MFC90: kills 90% of strains
Paecilomyces strains = experiment: MFC determination; assay type: cell-based, Paecilomyces spp.; details: Paecilomyces strains (5)
C. krusei strains = experiment: MFC determination; assay type: cell-based; details: for MFC50 / MFC90: C. krusei; for MFC50: kills 50% of strains; for MFC90: kills 90% of strains
Cr. neoformans strains = experiment: MFC determination; assay type: cell-based, Cryptococcus neoformans; details: for MFC50 / MFC90: Cr. neoformans; for MFC50: kills 50% of strains; for MFC90: kills 90% of strains
[3] = test system: individual Aspergillus spp. (Table 13, species not given); experiment: MFC determination, Table 13; assay type: cell-based; details: Aspergillus sp. of Table 13; for MFC50: kills 50% of strains; for MFC90: kills 90% of strains
A. fumigatus AF91 = experiment: In vitro activity (MFC) against the infecting strain, Example 17; assay type: cell-based, Aspergillus fumigatus
Protocol: Minimum Fungicidal Concentration: MFC determinations were performed according to the modifications previously described by Canton et al., Diagn. Microbiol. Infect. Dis., 45:203-206, 2003, and Ghannoum and Isham, Infectious Diseases in Clinical Practice, 15(4):250-253, 2007.
Specifically, the total contents of each clear well from the MIC assay were subcultured onto potato dextrose agar. To avoid antifungal carryover, the aliquots were allowed to soak into the agar and then were streaked for isolation once dry, thus removing the cells from the drug source. Fungicidal activity is defined as ≥99.9% reduction in the number of colony forming units (CFU)/ml from the starting inoculum count, while fungistatic activity is defined as <99.9% reduction. […] MIC and MFC values are considered to be equivalent if they are within 2 dilutions.

Penicillium strains = experiment: MFC determination; assay type: cell-based, Penicillium spp.; details: for MFC50: kills 50% of strains; for MFC90: kills 90% of strains
[4] = test system: Candida albicans ATCC 10231; experiment: MIC50 growth inhibition assay of compositions (OD600), Example 12; assay type: cell-based; details: concentration giving 50% growth inhibition
Protocol: Efficacy of the compositions was determined using Minimum Inhibitory Concentration assays, and the concentration of active compound giving 50% growth inhibition of the indicator organism was reported (MIC50). The assay was performed in well plates with two (Müller-Hinton medium) or three parallel (M19-medium) cell cultures for each condition.
Cell Culture Medium: Müller-Hinton and M19 without NaCl.
Indicator Organism: Candida albicans ATCC 10231
Stock Solutions of the Active Compounds and Control: • Amphotericin B (USP): vacuum dried powder was dissolved in DMSO to 2.5 mg/mL giving a final concentration after inoculation of 2.5 μg/mL in the well with the highest concentration. • compound 1A (custom made): powder was dissolved in DMSO to 2.5 mg/mL giving a final concentration after inoculation of 2.5 μg/ml compound 1A in the well with the highest concentration. It is assumed that the batch is 70% pure. • Example 3 composition: the formulation was a suspension with 18 mg/mL nanoparticles. The suspension was diluted in a medium and C. albicans inoculum to a final concentration of 5 μg/mL of compound 1A and 130 μg/mL of […]. From this solution 10 dilutions were prepared giving 0.009 μg/ml compound 1A in the lowest concentration. • Empty poly(ethylbutyl cyanoacrylate) particles: empty poly(ethylbutyl cyanoacrylate) particles were used as a reference. The empty poly(ethylbutyl cyanoacrylate) was produced in the same manner as those in Examples 2 and 3, with the exception that they were prepared at pH 1, with vanillin concentration of 10% (w/w), and. The particles were diluted in the same manner as Example 3. The highest poly(ethylbutyl cyanoacrylate) concentration tested was 130 μg/mL.
Growth measurements were performed at OD600.

[5] = test system: Aspergillus fumigatus AF91; experiment: Disseminated Aspergillosis in immunocompromised murine model (CD-1 mice): tissue fungal burden; details: Experiment I; 1.0 mg/kg i.v., 7 days
Candida albicans SC5314 = experiment: Disseminated candidiasis in immunocompromised murine model (BALB/c mice): tissue fungal burden; assay type: in vivo; details: Experiment I; 0.35 mg/kg i.v., 7 days

SMILES	MFC50 [1] [µg/mL]	MFC90 [1] [µg/mL]	MFC50 [2] [µg/mL]	MFC90 [2] [µg/mL]	MFC50 (C. parapsilosis) [µg/mL]	MFC90 (C. parapsilosis) [µg/mL]	MFC Range (Fusarium strains)	MFC50 (Fusarium strains) [µg/mL]	MFC90 (Fusarium strains) [µg/mL]	MFC50 (C. krusei strains) [µg/mL]	MFC90 (C. krusei strains) [µg/mL]	MFC50 (Cr. neoformans strains) [µg/mL]	MFC90 (Cr. neoformans strains) [µg/mL]	MFC50 [3] [µg/mL]	MFC90 [3] [µg/mL]	MFC50 (Penicillium strains) [µg/mL]	MFC90 (Penicillium strains) [µg/mL]	also measured
C[C@@H]1[C@H](O)[C@@H](C)/C=C/C=C/C=C/C=C/C=C/C=C/C=C/[C@H](O[C@@H]2O[C@H](C)[C@@H](O)[C@H](N)[C@@H]2O)C[C@@H]2O[C@](O)(C[C@@H](O)C[C@@H](O)[C@H](O)CC[C@@H](O)C[C@@H](O)CC(=O)O[C@H]1C)C[C@H](O)[C@H]2C(=O)O [Amphotericin B]	> 32	> 32	1 (≈ 1.08 µM)	8 (≈ 8.66 µM)	1 (≈ 1.08 µM)	1 (≈ 1.08 µM)	1-4	2 (≈ 2.16 µM)	2 (≈ 2.16 µM)	1 (≈ 1.08 µM)	1 (≈ 1.08 µM)	0.5 (≈ 0.541 µM)	1 (≈ 1.08 µM)	> 8	> 8	4 (≈ 4.33 µM)	> 8	MFC (C. albicans SC5314): 0.25 µg/mL (≈ 0.271 µM); MFC Range (C. parapsilosis; C. parapsilosis strains, in µg/mL): 0.5-2; MFC Range (Paecilomyces strains): > 4 µg/mL; MFC Range (C. krusei strains; C. krusei strains, in µg/mL): 1; MFC Range (Cr. neoformans strains; Cr. neoformans strains, in µg/mL): 0.25-2; MFC (A. fumigatus AF91): 16 µg/mL (≈ 17.3 µM); MIC50 ([4]; M19 medium): 0.34 µg/mL (≈ 0.368 µM); MIC50 ([4]; Müller-Hinton medium): 0.04 µg/mL (≈ 0.0433 µM)
CC[C@H](C)C[C@H](C)CCCCCCCCC(=O)N[C@H]1C[C@@H](O)[C@@H](NCCN)NC(=O)[C@@H]2[C@@H](O)CCN2C(=O)[C@H]([C@H](O)CCN)NC(=O)[C@H]([C@H](O)[C@@H](O)c2ccc(O)cc2)NC(=O)[C@@H]2C[C@@H](O)CN2C(=O)[C@H]([C@@H](C)O)NC1=O [Caspofungin, caspofungin]	> 32	> 32	> 32	> 32	> 32	> 32	>32	> 32	> 32	2 (≈ 1.83 µM)	8 (≈ 7.32 µM)	> 32	> 32	> 32	> 32	> 32	> 32	Kidney tissue fungal burden, Mean log CFUs ± the standard deviation [5]: 3.11 ± 0.62 log CFUs; Lung tissue fungal burden, Mean log CFUs ± the standard deviation [5]: 3.41 ± 0.64 log CFUs; MFC (C. albicans SC5314; Candida albicans, read-out: MFC): 32 µg/mL (≈ 29.3 µM); MFC Range [2]: > 32 µg/mL; MFC (C. parapsilosis; individual C. parapsilosis strain with elevated MICs to non-polyene comparators (Table 22), in µg/mL): >32; MFC (C. krusei strains; individual C. krusei strain with elevated MICs to non-polyene comparators (Table 22)): > 32 µg/mL; MFC (A. fumigatus AF91; Aspergillus fumigatus, read-out: MFC): > 16 µg/mL; Brain tissue fungal burden, Mean log CFUs ± the standard deviation (Candida albicans SC5314): 1.22 ± 1.87 log CFUs; Kidney tissue fungal burden, Mean log CFUs ± the standard deviation (Candida albicans SC5314): 3.22 ± 1.26 log CFUs
